{"source": "PubChem BioAssay AID463199", "about": "(Broad Institute, 2010)", "note": "Activity calls are given as the source filed them.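 The calls were made as follows: active = AC50, the dose giving half-maximal effect, exceeds a fixed cutoff for a compound that rescues yeast growth under heat; inactive = the rest, inconclusive results apart.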"}
{"system": "S. cerevisiae Burl-1 ts mutant growth, BacTiter-Glo, 38.5C 24 h", "assay": "growth induction of Burl-1 ts yeast mutant, dose response, counter-screen for SUMOylation pathway inhibitor project, whole organism, S. cerevisiae, luminescence (AID 463199)"}
{"smiles": "O=C(CCN1CCc2ccccc2C1)Nc1ccc2c(c1)OCO2", "AC50": "> 42 µM (inactive)"}
{"smiles": "Cc1cc(NC(=O)CCC(=O)N(c2cccnc2)C(C(=O)NC2CCCC2)c2ccccc2)no1", "note": "(stereo not given)", "AC50": "> 42 µM (inactive)"}
{"smiles": "CCc1ccc(NC(=O)N2CCC(c3ccccc3)C2)cc1", "note": "(stereo not given)", "AC50": "> 42 µM (inactive)"}
{"smiles": "O=C(NCCCN1CCOCC1)C1CCC(=O)N1CCc1ccccc1", "note": "(stereo not given)", "AC50": "> 42 µM (inactive)"}
{"smiles": "CN(C(=O)CSc1nc(-c2ccccc2)c(-c2ccccc2)o1)C1CCS(=O)(=O)C1", "note": "(stereo not given)", "AC50": "> 42 µM (inactive)"}
{"smiles": "CN1/C(=C\\C(=O)COC(=O)c2ccc([N+](=O)[O-])o2)C(C)(C)c2ccccc21", "AC50": "> 42 µM (inactive)"}
{"smiles": "Cc1c(C(=O)N2CCOCC2)c(S(=O)(=O)Nc2cccc(Br)c2)c(C)n1C", "AC50": "> 42 µM (inactive)"}
{"smiles": "CN(C)CC/C=C1\\c2ccccc2Sc2ccc(Cl)cc21", "AC50": "> 42 µM (inactive)"}
{"smiles": "CC(C(=O)Nc1ccccc1-c1ccccc1)N1CCN(Cc2ccccc2)CC1", "note": "(stereo not given)", "AC50": "> 42 µM (inactive)"}
{"smiles": "CSc1ccc(CCNC(=O)C2CCCN(S(=O)(=O)N3CCOCC3)C2)cc1", "note": "(stereo not given)", "AC50": "> 42 µM (inactive)"}
{"smiles": "CC(C)C(CC(=O)NCc1ccco1)c1ccco1", "note": "(stereo not given)", "AC50": "> 42 µM (inactive)"}
{"smiles": "Cc1ccsc1C(=O)NCCc1ccc(S(N)(=O)=O)cc1", "AC50": "> 42 µM (inactive)"}
{"smiles": "C=CCn1cc(C(C)=O)c(=O)[nH]c1=O", "AC50": "> 42 µM (inactive)"}
{"smiles": "CN(C)c1cccc(C(=O)Nc2cc(C(F)(F)F)ccc2-n2cnc3ccccc32)c1", "AC50": "> 42 µM (inactive)"}
{"smiles": "CN1C(=O)/C(=C/c2ccc(OCc3ccccc3F)cc2)NC1=S", "AC50": "> 42 µM (inactive)"}
{"smiles": "CCC(C)N1C(=O)CN(C2CCCCCC2)C(=O)C1c1ccccc1F", "note": "(stereo not given)", "AC50": "> 42 µM (inactive)"}
{"smiles": "O=C1CCN(Cc2ccccc2)CCN1CCOc1ccccc1", "AC50": "> 42 µM (inactive)"}
{"smiles": "CC(C)(C)n1nnnc1C(c1ccc(Cl)cc1)N(Cc1cccnc1)Cc1ccco1", "note": "(stereo not given)", "AC50": "> 42 µM (inactive)"}
{"smiles": "COc1ccc(Cn2nnnc2CN2CCN(c3ccc(OC)cc3)CC2)cc1", "AC50": "> 42 µM (inactive)"}
{"smiles": "N#Cc1ccc(/C=C/C(=O)c2ccco2)cc1", "AC50": "> 42 µM (inactive)"}
{"smiles": "Cc1cccc(C)c1NC(=O)C(Cl)C(=O)c1ccccc1", "note": "(stereo not given)", "AC50": "> 42 µM (inactive)"}
{"smiles": "CC(=O)c1ccc(NC(=O)CSc2nnc(-c3ccco3)o2)cc1", "AC50": "> 42 µM (inactive)"}
{"smiles": "Cc1nc(CC(=O)N/N=C/c2ccc(OCC(=O)O)cc2)cs1", "AC50": "> 42 µM (inactive)"}
{"smiles": "N#C/C(=C\\c1cn(-c2ccccc2)nc1-c1cccnc1)c1nnc2n1CCCCC2", "AC50": "> 42 µM (inactive)"}
{"smiles": "COc1ccc(C2CC3(CC(C)(C)NC(=S)N3)Oc3cc(O)cc(C)c32)cc1", "note": "(stereo not given)", "AC50": "> 42 µM (inactive)"}
{"smiles": "Cc1ccc(C(=O)NCC(=O)Nc2ccc3c(c2)OCCO3)cc1", "AC50": "18.5 µM"}
{"smiles": "CN1C(=O)NC(=O)[C@]2(Cc3ccccc3N3CCN(c4ccccc4)CC32)C1=O", "note": "(stereo not given in full)", "AC50": "> 42 µM (inactive)"}
{"smiles": "CCOc1cc(C(=S)N2CCOCC2)ccc1OC(=O)c1ccc(C)cc1", "AC50": "> 42 µM (inactive)"}
{"smiles": "COc1ccc(NC(=O)CCCc2ccccc2)cc1OC", "AC50": "9.43 µM"}
{"smiles": "Cn1c(O)c(C(c2ccccn2)c2c(O)n(C)c(=S)n(C)c2=O)c(=O)n(C)c1=S", "AC50": "> 42 µM (inactive)"}
{"smiles": "CN(C)C(=O)CSc1nc2ccc(N3C(=O)c4ccccc4C3=O)cc2s1", "AC50": "> 42 µM (inactive)"}
{"smiles": "O=C(O)Cc1sc(Nc2ccccc2)nc1-c1cccs1", "AC50": "> 42 µM (inactive)"}
{"smiles": "O=C1CC(N(CCc2ccccc2)C(=S)Nc2ccccc2)C(=O)N1c1ccc(F)cc1", "note": "(stereo not given)", "AC50": "> 42 µM (inactive)"}
{"smiles": "COc1ccc(C(=O)NCCSc2ccc(C)cc2)cc1", "AC50": "> 42 µM (inactive)"}
{"smiles": "Cc1ccc(S(=O)(=O)N(C)CC(=O)O/N=C(\\N)c2ccccn2)cc1", "AC50": "40.6 µM"}
{"smiles": "Cc1ccc(/C(N)=N/OC(=O)/C=C/c2ccccc2)cc1", "AC50": "> 42 µM (inactive)"}
{"smiles": "CSc1ncc2ncn(C3OC(CO)C(O)C3O)c2n1", "note": "(stereo not given)", "AC50": "> 42 µM (inactive)"}
{"smiles": "Clc1cnc(Oc2ccc(Oc3ncc(Cl)cc3Cl)cc2)c(Cl)c1", "AC50": "> 42 µM (inactive)"}
{"smiles": "O=C(NCC(c1cccs1)N1CCOCC1)c1ccccc1NS(=O)(=O)c1cc([N+](=O)[O-])ccc1Cl", "note": "(stereo not given)", "AC50": "> 42 µM (inactive)"}
{"smiles": "COCCn1c(SCc2ccc(Cl)cc2)nc2c1c(=O)[nH]c(=O)n2C", "AC50": "> 42 µM (inactive)"}
{"smiles": "COc1cc(C)ccc1OCCCOc1ccccc1Br", "AC50": "> 42 µM (inactive)"}
{"smiles": "NC(=O)CC(NC(=S)NCc1ccccc1)C(=O)O", "note": "(stereo not given)", "AC50": "> 42 µM (inactive)"}
{"smiles": "O=C(COc1ccc(-n2cnnn2)cc1)NCCc1ccc(F)cc1", "AC50": "> 42 µM (inactive)"}
{"smiles": "O=C(COc1ncnc2ccccc12)Nc1ccc(Cl)c(S(=O)(=O)N2CCOCC2)c1", "AC50": "> 42 µM (inactive)"}
{"smiles": "CCOC(=O)C1CCCN(C(=O)/C=C/c2ccc(Cl)cc2)C1", "note": "(stereo not given)", "AC50": "> 42 µM (inactive)"}
{"smiles": "CCCCNC(=O)C1C2C=CC3(CN(Cc4ccc(C)cc4)C(=O)C13)O2", "note": "(stereo not given)", "AC50": "> 42 µM (inactive)"}
{"smiles": "O=C1C2CCCCN2C(=O)N1CCCCN1CCN(c2ccccc2Oc2ccccc2)CC1", "note": "(stereo not given)", "AC50": "> 42 µM (inactive)"}
{"smiles": "Cc1cc(=O)oc(C)c1C(=O)Nc1ccc(Cl)cn1", "AC50": "> 42 µM (inactive)"}
{"smiles": "NC(=O)c1cc(S(=O)(=O)N2CCCC2)ccc1OCc1ccc(F)cc1", "AC50": "> 42 µM (inactive)"}
{"smiles": "CC(CN1CCCCCC1)C(=O)NN", "note": "(stereo not given)", "AC50": "> 42 µM (inactive)"}
